Reference: US5103007A, “Lipids” (Takeda Chemical Industries, Ltd., priority 1988, dated 1992)
In brackets after ≈: the same amount, converted by molar mass.

How the values were obtained:
[1] = tested on: human nasopharynx cancer (KB cells); test: Inhibition of multiplication of human nasopharynx cancer (KB cells), MTT assay; type: cell-based; settings: 72 hours
Experimental: (§1) The effect (IC50) of the compounds obtained by Examples in inhibiting multiplication of human nasopharynx cancer (KB cells) and human colon adenocarcinoma (colon 205 cells) Each well of a 96-well microtiter plate was inoculated with 0.1 ml of human nasopharynx cancer (KB cells) (1×10^4 /ml) or human colon adenocarcinoma (colon 205 cells) (2×10^4 /ml), which was then subjected to cultivation by allowing to stand at 37° C. for 24 hours in 5% CO2. To the culture was added a 10% MEM solution (manufactured by Nissui Seiyaku or RPMI-1640), and cultivation was continued at 37° C. for 72 hours in 5% CO2. Then, the culture solution was removed with a micro-pipette. […] Incubation was conducted at 37° C for 4 hours, to which was then added 0.1 ml of a 10% SDS (Wako Pure Chemical Industries, Ltd.), and the incubation was continued at 37° C. for 24 hours.

[2] = tested on: human colon adenocarcinoma (colon 205 cells); test: Inhibition of multiplication of human colon adenocarcinoma (colon 205 cells), MTT assay; type: cell-based; settings: 72 hours
Experimental: as §1

Row | Compound | IC50 [1] | IC50 [2]
1 | CCCCCCCCCCCCCCCCCCOCC(CSCCOCC[N+](C)(C)C)Oc1ncccn1.[Cl-] (stereo not drawn) [Ex. 23, N-[2-[2-[3-octadecyloxy-2-(pyrimidin-2-yloxy)propylthio]ethoxy]ethyl]-N,N,N-trimethylammonium chloride] | 0.63 µg/mL | 0.63 µg/mL
2 | CCCCCCCCCCCCCCCCCCOCC(C[S+]([O-])CCOCC[n+]1ccc(N(C)C)cc1)Oc1ncccn1.[Cl-] (stereo not drawn) [Ex. 7, 4-dimethylamino-1-[2-[2-[3-octadecyloxy-2-(pyrimidin-2-yloxy)propylsulfinyl]ethoxy]ethyl]pyridinium chloride] | 0.16 µg/mL | 0.63 µg/mL
3 | CCCCCCCCCCCCCCCCCCOCC(CSCCOCC[n+]1ccccc1)Oc1ccncn1.[Cl-] (stereo not drawn) [Ex. 32, N-[2-[2-[3-octadecyloxy-2-(pyrimidin-4-yloxy)propylthio]ethoxy]ethyl]pyridinium chloride] | 0.63 µg/mL | 1.25 µg/mL
4 | CCCCCCCCCCCCCCCCCCOCC(CSCCOCCOCC[N+](C)(C)C)Oc1ncccn1 (stereo not drawn) [Ex. 47, N-[2-[2-[2-[3-octadecyloxy-2-(pyrimidin-2-yloxy)propylthio]ethoxy]ethoxy]ethyl]-N,N,N,trimethylammonium chloride] | 0.63 µg/mL | 1.25 µg/mL
5 | CCCCCCCCCCCCCCCCCCOCC(C[S+]([O-])CCOCC[n+]1ccc2ccccc2c1)Oc1ncccn1.[Cl-] (stereo not drawn) [Ex. 4, N-[2-[2-[3-octadecyloxy-2-(pyrimidin-2-yloxy)propylsulfinyl]ethoxy]ethyl]isoquinolinium chloride] | 0.32 µg/mL | 0.63 µg/mL
6 | CCCCCCCCCCCCCCCCCCOCC(CSCCOCC[n+]1ccn(CCCC(=O)[O-])c1)OC (stereo not drawn) [Ex. 45, 4-[3-[2-[2(2-methoxy-3-octadecyloxypropylthio)ethoxy]ethyl]imidazolio-1-yl]butyrate] | 0.63 µg/mL (≈ 1.05 µM) | 2.5 µg/mL (≈ 4.17 µM)
7 | CCCCCCCCCCCCCCCCCCOCC(C[S+]([O-])CCOCCOCC[N+](C)(C)C)Oc1ncccn1.[Cl-] (stereo not drawn) [Ex. 48, N-[2-[2-[3-octadecyloxy-2-(pyrimidin-2-yloxy)propylsulfinyl]ethoxy]ethoxy]ethyl-N,N,N-trimethylammonium chloride] | 0.16 µg/mL | 0.63 µg/mL
8 | CCCCCCCCCCCCCCCCCCOCC(CS(=O)(=O)CCCCCOCCCCC[n+]1ccccc1)Oc1ncccn1.[Cl-] (stereo not drawn) [Ex. 42, N-[5-[5-[3-octadecyloxy-2-(pyrimidin-2-yloxy)propylsulfonyl]pentyloxy]pentyl]pyridinium chloride] | 0.32 µg/mL | 1.25 µg/mL
9 | CCCCCCCCCCCCCCCCCCOCC(CSCCCOCCC[n+]1ccn(CCCCCC(=O)[O-])c1)Oc1ncccn1 (stereo not drawn) [Ex. 13, 6-[3-[3-[3-[3-octadecyloxy-2-(pyrimidin-2-yloxy)propylthio]propoxy]propyl]imidazolio-1-yl]hexanoate] | 0.63 µg/mL (≈ 0.876 µM) | 1.25 µg/mL (≈ 1.74 µM)
10 | CCCCCCCCCCCCCCCCCCOCC(CSCCOCC[n+]1cccc(CCCCC(=O)[O-])c1)OC (stereo not drawn) [Ex. 46, 5-[1-[2-[2-(2-methoxy-3-octadecyloxypropylthio)ethoxy]ethyl]pyridinio-3-yl]-pentanoate] | 0.32 µg/mL (≈ 0.513 µM) | 2.5 µg/mL (≈ 4.01 µM)
11 | CCCCCCCCCCCCCCCCCCOCC(C[S+]([O-])CCOCC[N+](C)(C)C)Oc1ccncn1.[Cl-] (stereo not drawn) [Ex. 35, N-[2-[2-[3-octadecyloxy-2-(pyrimidin-4-yloxy)propylsulfinyl]ethoxy]ethyl]-N,N,N-trimethylammonium chloride] | 0.16 µg/mL | 0.63 µg/mL
12 | CCCCCCCCCCCCCCCCCCOCC(CSCCOCC[n+]1ccn(CCC(C)(C)C(=O)OCC)c1)Oc1ncccn1 (stereo not drawn) [Ex. 26, 1-[(3-ethoxycarbonyl-3-methyl)butyl]-3-[2-[2-[3-octadecyloxy-2-(pyrimidin-2-yloxy)propylthio]-ethoxy]ethyl]imidazolium choride] | 1.25 µg/mL | 0.63 µg/mL
13 | CCCCCCCCCCCCCCCCCCOCC(CS(=O)(=O)CCOCC[n+]1ccccc1)Oc1ncccn1.[Cl-] (stereo not drawn) [Ex. 20, N-[2-[2-[3-octadecyloxy-2-(pyrimidin-2-yloxy)propylsulfonyl]ethoxy]ethyl]pyridinium chloride] | < 0.08 µg/mL | 0.63 µg/mL
14 | [Cl-].[O-][S+](CCOCC[n+]1ccccc1)CC(COCCCCCCCCCCCCC1CCCCC1)Oc1ncccn1 (stereo not drawn) [Ex. 29, 1-[2-[2-[3-(12-cyclohexyldodecyloxy)-2-(pyrimidin-2yloxy)propylsulfinyl]ethoxy]ethyl]pyridinium chloride] | < 0.08 µg/mL | 0.63 µg/mL
15 | CCCCCCCCCCCCCCCCCCOCC(CSCCOCC[n+]1ccn(CCCCCC(=O)OCC)c1)Oc1ncccn1 (stereo not drawn) [Ex. 25, 1-[(5-ethoxycarbonyl)pentyl]-3-[2-[2-[3-octadecyloxy-2-(pyrimidin-2-yloxy)propylthio]ethoxy]ethyl]imidazolium chloride] | 0.32 µg/mL | 2.5 µg/mL
16 | CCCCCCCCCCCCCCCCCCOCC(CS(=O)(=O)CCCOCCC[n+]1ccccc1)Oc1ncccn1.[Cl-] (stereo not drawn) [Ex. 16, N-[3-[3-[3-octadecyloxy-2-(pyrimidin-2-yloxy)propylsulfonyl]propoxy]propyl]pyridinium chloride] | 0.16 µg/mL | 0.63 µg/mL
17 | O=C([O-])CCCn1cc[n+](CCOCCSCC(COCCCCCCCCCCCCC2CCCCC2)Oc2ncccn2)c1 (stereo not drawn) [Ex. 28] | 1.25 µg/mL (≈ 1.89 µM) | 5 µg/mL (≈ 7.56 µM)
18 | CCCCCCCCCCCCCCCCCCOCC(CSCCOCC[N+]1(C)CCCC1)Oc1ncccn1.[Cl-] (stereo not drawn) [Ex. 22, N-methyl-N-[2-[2-[3-octadecyloxy-2-(pyrimidin-2-yloxy)propylthio]ethoxy]ethyl]pyrrolidinium chloride] | 0.32 µg/mL | 1.25 µg/mL
19 | CCCCCCCCCCCCCCCCCCOCC(C[S+]([O-])CCOCC[n+]1cccc2ccccc21)Oc1ncccn1 (stereo not drawn) [Ex. 5, N-[2-[2-[3-octadecyloxy-2-(pyrimidin-2-yloxy)propylsulfinyl]ethoxy]quinolinium chloride] | 0.16 µg/mL | 0.32 µg/mL
20 | CC(C)CCCC(C)CCCC(C)CCCC(C)CCOCC(CSCCOCC[n+]1ccn(CCCCCC(=O)[O-])c1)Oc1ncccn1 (stereo not drawn) [Ex. 38, 6-[3-[2-[2-[2-(pyrimidin-2-yloxy)-3-(3,7, 11,15-tetramethylhexadecyloxy)propylthio]ethoxy]ethyl]-imidazolio-1-yl)hexanoate] | 0.63 µg/mL (≈ 0.876 µM) | 2.5 µg/mL (≈ 3.48 µM)
21 | CCCCCCCCCCCCCCCCCCOCC(C[S+]([O-])CCOCC[n+]1ccccc1)Oc1ccncn1.[Cl-] (stereo not drawn) [Ex. 34, N-[2-[2-[3-octadecyloxy-2-(pyrimidin-4-yloxy)propylsulfinyl]ethoxy]ethyl]pyridinium chloride] | 0.32 µg/mL | 0.63 µg/mL
22 | CCCCCCCCCCCCCCCCCCOCC(C[S+]([O-])CCOCC[N+](C)(C)C)OC.[Cl-] (stereo not drawn) [Ex. 44, N-[2-[2-(2-methoxy-3-octadecyloxypropylsulfinyl)ethoxy]ethyl]-N,N,N-trimethylammonium chloride] | 0.16 µg/mL | 0.32 µg/mL
23 | CC(C)CCCC(C)CCCC(C)CCCC(C)CCOCC(C[S+]([O-])CCOCC[n+]1ccccc1)Oc1ncccn1.[Cl-] (stereo not drawn) [Ex. 39, N-[2-[2-[2-(pyrimidin-2-yloxy)-3-(3,7,11, 15-tetramethylhexadecyloxy)propylsulfinyl]ethoxy]ethyl]-pyridinium chloride] | 0.16 µg/mL | 0.63 µg/mL
24 | CCCCCCCCCCCCCCCCCCOCC(C[S+]([O-])CCCOCCC[n+]1ccsc1)Oc1ncccn1 (stereo not drawn) [Ex. 18, 3-[3-[3-octadecyloxy-2-(pyrimidin-2-yloxy)propylsulfinyl]propoxy]propylthiazolium chloride] | 1.25 µg/mL | 1.25 µg/mL
25 | CCCCCCCCCCCCCCCCCCOCC(CSCCOCC[n+]1cccc(CCCCC(=O)[O-])c1)Oc1ncccn1 (stereo not drawn) [Ex. 37, 5-[1-[2-[2-[3-octadecyloxy-2-(pyrimidin-2-yloxy)propylthio]ethoxy]ethyl]pyridinio-3-yl]pentanoate] | 0.32 µg/mL (≈ 0.465 µM) | 5 µg/mL (≈ 7.27 µM)
26 | CCCCCCCCCCCCCCCCCCOCC(C[S+]([O-])CCOCC[N+]1(C)CCCC1)Oc1ncccn1.[Cl-] (stereo not drawn) [Ex. 30, N-methyl-N-[2-[2-[3-octadecyloxy-2-(pyrimidin-2-yloxy)propylsulfinyl]ethoxy]ethyl]pyrrolidinium chloride] | 0.16 µg/mL | 0.32 µg/mL
27 | CCCCCCCCCCCCCCCCCCOCC(CSCCOCC[N+](C)(C)C)OC (stereo not drawn) [Ex. 43, N-[2-(2-methoxy-3-oxtadecyloxypropylthio)ethoxy]ethyl-N,N,N-trimethylammonium chloride] | 0.32 µg/mL | 1.25 µg/mL
28 | CCCCCCCCCCCCCCCCCCOCC(CS(=O)(=O)CCCOCCC[N+](C)(C)C)Oc1ncccn1.[Cl-] (stereo not drawn) [Ex. 17, N-[3-[3-[3-octadecyloxy-2-(pyrimidin-2-yloxy)propylsulfonyl]propoxy]propyl]-N,N,N-trimethylammonium chloride] | 0.32 µg/mL | 1.25 µg/mL
29 | CCCCCCCCCCCCCCCCCCOCC(CS(=O)(=O)CCCOCCC[n+]1ccsc1)Oc1ncccn1 (stereo not drawn) [Ex. 15, 3-[3-[3-octadecyloxy-2-(pyrimidin-2-yloxy)propylsulfonyl]propoxy]propylthiazolium chloride] | 1.25 µg/mL | 1.25 µg/mL
30 | CCCCCCCCCCCCCCCCCCOCC(CSCCOCC[n+]1ccn(CCCCCC(=O)[O-])c1)Oc1ccncn1 (stereo not drawn) [Ex. 33, 6-[3-[2-[2-[3-octadecyloxy-2-(pyrimidin-4-yloxy)propylthio]ethoxy]ethyl]imidazolio-1-yl]hexanoate] | 0.63 µg/mL (≈ 0.912 µM) | 2.5 µg/mL (≈ 3.62 µM)
